Reference: patent US9199914B2, “Multiple substituted fluoromethanes as selective and bioactive isosteres” (MEH ASSOCIATES, INC., priority 2010, dated 2015)
Values after ≈ are worked out from the molar mass of the structure shown. Like-named read-outs stand apart in the source and are kept apart here. Blank lines part the entries; values can stand above or below the compound they belong to.

What was measured:
Type in all cases: cell-based
[1] = system: T. cruzi Tulahuen C2C4, containing the Lac Z gene; assay: In vitro sensitivity assay: T. cruzi (Lac Z / CPRG, in L-6 cells); conditions: Trypanosoma cruzi, L6; Tulahuen C4, amastigotes in L-6 cells
[2] = system: L-6 (rat skeletal myoblast cells); assay: cells
[3] = system: L. donovani MHOM-ET-67/L82, axenic amastigotes; assay: In vitro sensitivity assay: axenic Leishmania donovani (Resazurin)
Plasmodium falciparum K1 = assay: microbe, parasite or virus in culture
[4] = system: Trypanosoma brucei rhodesiense; STIB 900; assay: microbe, parasite or virus in culture
[5] = MHOM-ET-67/L82, amastigotes, 72 hours, read-out: IC50 Values L. donovani

Structure (SMILES): O=C(O)CNCCC(F)(F)F [MEH-002, (3,3,3-Trifluoro-propylamino)-acetic acid]
- IC50 [1]: > 90 µg/mL
- IC50 ([2]; L6 cells, read-out: IC50 Values Cytoxicity): > 90 µg/mL
- IC50 [3, 5]: > 90 µg/mL
- IC50 (Plasmodium falciparum K1; K1, IEF, read-out: IC50 Values P. falciparum): > 5 µg/mL
- IC50 ([4]; STIB 900, trypomastigotes, 72 h, read-out: IC50 Values T.b. rhodensiense): 10.3 µg/mL (≈ 60.2 µM)

- IC50 (Plasmodium falciparum K1; K1, read-out: IC50 Values P. falciparum): 0.059 µg/mL (≈ 0.184 µM)
- IC50 (Plasmodium falciparum K1; K1, read-out: average IC50): 0.065 µg/mL (≈ 0.203 µM)
Structure (SMILES): CCN(CC)CCCC(C)Nc1ccnc2cc(Cl)ccc12 (stereo not shown) [chloroquinine, Chloroquine]

Structure (SMILES): Nc1nc(N)nc(Nc2ccc([As]3SCC(CO)S3)cc2)n1 (stereo not shown) [melarsoprol]
- IC50 ([4]; 72 h, read-out: IC50 Values T.b. rhodensiense): 0.003 µg/mL
- IC50 ([4]; read-out: average IC50): 0.004 µg/mL

- IC50 [3, 5]: 0.178 µg/mL (≈ 0.437 µM)
- IC50 ([3]; standard drug, protocol value, read-out: average IC50): 0.131 µg/mL (≈ 0.321 µM)
Structure (SMILES): CCCCCCCCCCCCCCCCOP(=O)([O-])OCC[N+](C)(C)C [miltefosine]

Structure (SMILES): COc1cc([C@@H]2c3cc4c(cc3[C@H](O)[C@H]3COC(=O)[C@H]23)OCO4)cc(OC)c1OC [podophyllotoxin]
- IC50 ([2]; L6, read-out: IC50 Values Cytoxicity): 0.007 µg/mL (≈ 0.0169 µM)
- IC50 ([2]; Myoblast, read-out: average IC50): 0.006 µg/mL (≈ 0.0145 µM)
